Measured values reported in article PMC10564737, “Structure-based design of a phosphotyrosine-masked covalent ligand targeting the E3 ligase SOCS2” (Nature Communications, 2023).
Several values for one entry are separate records, joined by “and”; a condition that tells them apart may be missing. Identical values can stand only once.

Key:
SBC2 [1] = target: T1, SBC2 (Homo sapiens, UniProt O14508); assay: Surface plasmon resonance (SPR) with SBC2 immobilized on the chip; assay type: binding; conditions: for Kd: Table 2, second-round library, n = 1
T1 construct: SOCS2 (amino acids 32–198); His6 (N, cleaved yes); made in house; host or cells: E. coli BL21(DE3)
T1 sequence (O14508 32-198): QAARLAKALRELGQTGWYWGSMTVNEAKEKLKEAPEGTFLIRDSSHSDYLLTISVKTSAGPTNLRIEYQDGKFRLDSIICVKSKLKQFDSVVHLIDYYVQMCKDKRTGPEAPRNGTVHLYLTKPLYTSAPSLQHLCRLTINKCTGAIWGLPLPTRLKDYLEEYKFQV
T1 sequence (Q15370 1-104 partner limits assumed): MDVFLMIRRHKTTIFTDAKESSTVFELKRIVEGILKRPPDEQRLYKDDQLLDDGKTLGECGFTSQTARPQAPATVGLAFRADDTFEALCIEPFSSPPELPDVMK
T1 sequence (Q15369 17-112 partner limits assumed): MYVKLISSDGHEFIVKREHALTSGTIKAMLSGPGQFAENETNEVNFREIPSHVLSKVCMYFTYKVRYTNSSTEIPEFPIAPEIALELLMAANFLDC
Source text: First, we decided to optimize the N-terminal region of 1 while maintaining the N-methylamide group at the C-terminus. To generate analogs rapidly, we employed a solid phase synthesis using methyl indole AM resin. After Fmoc deprotection, the resin was loaded with Fmoc-Tyr (PO(OBzl)2)-OH[29]. Subsequent coupling with various commercially available carboxylic acids and cleavage with TFA allowed the rapid synthesis of N-methylcarboxamide phosphotyrosines (Supplementary Fig. 1). We introduced different substituents at the N-terminus to cover a range of physicochemical properties (e.g. alicyclic, heterocyclic, aromatic with electron-withdrawing and electron-donating groups) to maximize potential interactions (see Table 1 for representative examples). Binding affinities of the synthesized compounds for SOCS2 were measured via two orthogonal biophysical binding assays: (1) surface plasmon resonance (SPR) with SBC2 immobilized on the chip (Supplementary Fig. 7); and (2) ^19F ligand-observed displacement NMR assays, providing two orthogonal biophysical measurements of dissociation constants (KD)[29],[31]. We found an excellent correlation between the KD values measured via the two techniques (Table 1). Para-substituted benzyl moieties yielded the greatest contributions to binding affinity and there were only slight differences between electron-withdrawing groups such as a methyl ester and electron-donating such as methoxy group.
SPR experiments were performed using a Biacore S200 instrument (GE Healthcare) in 20 mM HEPES pH 7.5, 150 mM NaCl, 1 mM TCEP, 0.005% Tween20, 2% DMSO buffer at 10 °C. Biotinylated SBC2 was immobilized onto a chip surface (the final surface density of biotinylated SBC2 was ~3000–4000 RU). AviTagged-SBC was biotinylated using BirA enzyme as per manufacturer’s protocol (Avidity). Compounds were serially diluted in the running buffer and injected individually: contact time 60 s, flow rate 30 μL/min, dissociation time 150 s, using a stabilization period of 30 s and syringe wash (50% DMSO) between injections. Data analysis was carried out using Biacore Evaluation Software (GE Healthcare). All data were double-referenced for reference surface and blank injection. The processed sensograms were fit to a steady-state affinity using a 1:1 binding model for KD estimation.

SBC2 [2] = target: T1, SBC2; assay: Isothermal titration calorimetry (ITC), direct titration; assay type: binding; conditions: for Kd: ITC KD, direct ITC, 298 K
Method: Experiments were performed with ITC200 instrument (Malvern) in 100 mM HEPES pH 7.5, 50 mM NaCl, 0.5 mM TCEP at 298 K. The ITC titration consisted of 0.4 μl initial injection (discarded during data analysis) followed by 19 of 2 μl injections at 120 s interval between injections. 1 mM of the ligands in 2–4% DMSO were titrated into 100 μM SBC2. […] Binding data was subtracted from a control titration where ligand was titrated into buffer, and fitted using a one-set-of-site binding model to obtain dissociation constant (Kd), binding enthalpy (ΔH), and stoichiometry (N) using MicroCal PEAQ-ITC Analysis Software1.1.0.1262 and MicroCal ITC-ORIGIN Analysis Software 7.0 (Malvern).

[3] = target: T2, HiBiT-SOCS2 fusion in HeLa cells (Homo sapiens, UniProt O14508); assay: Split-NanoLuc CETSA, live-cell mode; assay type: cell-based; design: Produrg CETSA screening, raw signal: reference not given here; conditions: for Produrg CETSA screening, raw signal: 50uM 20hrs
T2 construct: encoding SOCS2 (32–198) in pBiT3.1-N expression vector; expressed in transfected cells; host or cells: HeLa
T2 sequence (O14508 32-198): as the sequence (O14508 32-198) above
T2 sequence (Q15370 whole entry, further chain, the tested form may be a part): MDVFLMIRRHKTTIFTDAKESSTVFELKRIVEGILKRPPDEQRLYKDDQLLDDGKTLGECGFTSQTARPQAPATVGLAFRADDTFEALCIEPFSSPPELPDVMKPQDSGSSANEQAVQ
T2 sequence (Q15369 whole entry, further chain, the tested form may be a part): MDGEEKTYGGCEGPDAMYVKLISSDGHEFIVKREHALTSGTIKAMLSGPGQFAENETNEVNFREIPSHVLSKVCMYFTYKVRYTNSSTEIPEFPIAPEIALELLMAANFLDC
Method: One of the challenges with small-molecule binders displaying on-target activity with recombinant proteins, is to translate their utility to a cellular context. […] One of the advantages of CETSA is that target engagement can be monitored without the need for the development of a cell-permeable tracer molecule.
We utilized CETSA in a live-cell mode to evaluate the efficacy and rank the different prodrugs. We treated live HeLa cells with 50 μM compound (prodrugs) for 20 h and monitored Tagg shift as a proxy for the combo of prodrug permeability and unmasking (Fig. 4d). […] The observation could be because the POM group unmasking requires only esterase unlike the reliance of compounds 21–23 on esterase and phosphoramidase for unmasking an aryloxy phosphoramidate group.
N-terminal HiBiT-SOCS2 fusion was generated by encoding SOCS2 (32–198) in pBiT3.1-N expression vector (Promega). The transfection and target engagement assay were performed by modifying a NanoLuc target engagement protocol (Promega) with some small modifications. Briefly, HiBiT-SOCS2 fusion construct was transfected into HeLa cells using FuGENE HD (Promega) according to the manufacturer’s protocol. HiBiT-SOCS2 fusion construct was diluted into Transfection Carrier DNA (Promega) at a mass ratio of 1:100 or 1:10 for permeabilised and live-cell CETSA respectively. FuGENE HD was added at a ratio of 1:3 (μg DNA: μL FuGENE HD). 1 part (vol) of FuGENE HD complexes thus formed were combined with 20 parts (vol) of HeLa cells suspended at a density of 2 × 10^5 cells/mL, followed by incubation in a humidified, 37 °C + 5% CO2 incubator. After 20 h of incubation HeLa cells were detached and resuspended at a density of 2.5 × 10^5 cells/mL in Opti-MEM media without serum or phenol red but supplemented with protease inhibitor cocktail (Roche). Compounds stocks were added to cell suspension to maintain a final DMSO concentration of 1%. For the permeabilised assay format, 96-well PCR plates (Thermo) were pre-treated with digitonin to have a final well concentration of 50 μg/ml. 50 μl Opti-MEM cell suspension was then aliquoted to each well of the 96-well plate. The plates are then covered with microporous tape sheet (Qiagen) prior to incubation in a humidified, 37 °C + 5% CO2 incubator. Post-incubation we heat the PCR plates in 16-point temperature (split across two runs) curve spanning degrees 40-72 °C temperature span (CFX96 Touch Real-Time PCR Detection System, BioRad). The thermal cycler block was allowed to rise to the designated temperatures prior to placement of the PCR plates into the heating block and heat treatment for 3 min. After incubating the plates at room temperature for over 3 min, 50 μl of the Nano-Glo HiBiT Lytic mix (Promega) was added to each well. Samples were mixed by pipetting and placing the plate on an orbital shaker (600 rpm) for 5 min. 20 μl of the samples (in triplicates) were transferred to a AlphaPlate-384 plate (Perkin Elmer). Luminescence was recorded with GloMax Discover Microplate Reader (Promega). To generate apparent Tagg curves, the data is first converted to percent stabilized by relating the observed luminescence to the luminescence of the lowest temperature (40 °C) for that given sample. Data are then fitted to obtain apparent Tagg values using the Boltzmann Sigmoid equation using Graphpad Prism 9.

Compound: CCc1cc(CNC(=O)[C@H](Cc2ccc(OP(=O)(O)O)cc2)NC(=O)Cc2ccc(F)cc2)ccc1F [Compound 12, (S)-4-(3-((3-ethyl-4-fluorobenzyl)amino)-2-(2-(4-fluorophenyl)acetamido)-3-oxopropyl)phenyl phosphate]
- Kd (SBC2 [1]): 2200 nM
- ITC ΔG (SBC2 [2]): -8.59 kcal/mol
- ITC ΔH (SBC2 [2]): -8.16 kcal/mol
- ITC −TΔS (SBC2 [2]): -0.43 kcal/mol
- Kd (SBC2 [2]): 500 nM and 510 nM

Compound: O=C(Cc1ccc(F)cc1)N[C@@H](Cc1ccc(OP(=O)(O)O)cc1)C(=O)NCc1ccc(F)cc1 [Compound 9, (S)-4-(3-((4-fluorobenzyl)amino)-2-(2-(4-fluorophenyl)acetamido)-3-oxopropyl)phenyl phosphate]
- improvement of binding affinity compared to 5 (SBC2 [1]; SPR): 10 fold
- Kd (SBC2 [1]): 4200 nM
- ITC ΔG (SBC2 [2]): -7.65 kcal/mol
- ITC −TΔS (SBC2 [2]): -3.55 kcal/mol
- Kd (SBC2 [2]): 2600 nM

Compound: C=CCc1cc(CNC(=O)[C@H](Cc2ccc(OP(=O)(O)O)cc2)NC(=O)Cc2ccc(F)cc2)ccc1F [Compound 13]
- Kd (SBC2 [1]): 2400 nM
- ITC ΔG (SBC2 [2]): -8.75 kcal/mol
- ITC −TΔS (SBC2 [2]): -1.62 kcal/mol
- Kd (SBC2 [2]): 380 nM

Compound: Cc1cc(CNC(=O)[C@H](Cc2ccc(OP(=O)(O)O)cc2)NC(=O)Cc2ccc(F)cc2)ccc1F [Compound 11, (S)-4-(3-((4-fluoro-3-methylbenzyl)amino)-2-(2-(4-fluorophenyl)acetamido)-3-oxopropyl)phenyl phosphate]
- Kd (SBC2 [1]): 2700 nM
- ITC ΔG (SBC2 [2]): -8.23 kcal/mol
- ITC ΔH (SBC2 [2]): -5.25 kcal/mol
- ITC −TΔS (SBC2 [2]): -2.98 kcal/mol
- Kd (SBC2 [2]): 1000 nM

Compound: C[C@H](NP(=O)(Oc1ccc(C[C@H](NC(=O)Cc2ccc(F)cc2)C(=O)NCc2cccc(NC(=O)CCl)c2)cc1)Oc1cccc2ccccc12)C(=O)OCc1ccccc1 (stereo partly shown) [Compound 23]
- Produrg CETSA screening, raw signal ([3]; n=1, temperature point 5 of 16, temperature not given): 69363 and 80806 and 112884
- Produrg CETSA screening, raw signal ([3]; n=1, temperature point 6 of 16, temperature not given): 96967 and 118352 and 144445
- Produrg CETSA screening, raw signal ([3]; n=1, temperature point 7 of 16, temperature not given): 143643 and 166973 and 192783
- Produrg CETSA screening, raw signal ([3]; n=1, temperature point 8 of 16, temperature not given): 106216 and 128406 and 210436
- Produrg CETSA screening, raw signal ([3]; n=1, temperature point 9 of 16, temperature not given): 167377 and 176709 and 206363
- Produrg CETSA screening, raw signal ([3]; n=1, temperature point 10 of 16, temperature not given): 186703 and 236478 and 300868
- Produrg CETSA screening, raw signal ([3]; n=1, temperature point 11 of 16, temperature not given): 231104 and 290174 and 305287
- Produrg CETSA screening, raw signal ([3]; n=1, temperature point 12 of 16, temperature not given): 354321 and 369048 and 401655
- Produrg CETSA screening, raw signal ([3]; n=1, temperature point 13 of 16, temperature not given): 341517 and 349800 and 466508
- Produrg CETSA screening, raw signal ([3]; n=1, temperature point 14 of 16, temperature not given): 353173 and 365195 and 397047
- Produrg CETSA screening, raw signal ([3]; n=1, temperature point 15 of 16, temperature not given): 381815 and 407106 and 448233
- Produrg CETSA screening, raw signal ([3]; n=1, temperature point 16 of 16, temperature not given): 423512 and 424780 and 453391
- Produrg CETSA screening, raw signal ([3]; n=2, temperature point 1 of 16, temperature not given): 81542 and 84696 and 155298
- Produrg CETSA screening, raw signal ([3]; n=2, temperature point 2 of 16, temperature not given): 72558 and 139894 and 123324
- Produrg CETSA screening, raw signal ([3]; n=2, temperature point 5 of 16, temperature not given): 87834 and 139601 and 100567
- Produrg CETSA screening, raw signal ([3]; n=2, temperature point 6 of 16, temperature not given): 98775 and 175976 and 137381
- Produrg CETSA screening, raw signal ([3]; n=2, temperature point 7 of 16, temperature not given): 152633 and 181253 and 191364
- Produrg CETSA screening, raw signal ([3]; n=2, temperature point 8 of 16, temperature not given): 176015 and 229873 and 213107
- Produrg CETSA screening, raw signal ([3]; n=2, temperature point 9 of 16, temperature not given): 189127 and 214945 and 246245
- Produrg CETSA screening, raw signal ([3]; n=2, temperature point 10 of 16, temperature not given): 212633 and 267460 and 262658
- Produrg CETSA screening, raw signal ([3]; n=2, temperature point 11 of 16, temperature not given): 244590 and 322245 and 338306
- Produrg CETSA screening, raw signal ([3]; n=2, temperature point 12 of 16, temperature not given): 338485 and 407495 and 420421
- Produrg CETSA screening, raw signal ([3]; n=2, temperature point 13 of 16, temperature not given): 375692 and 455999 and 437696
- Produrg CETSA screening, raw signal ([3]; n=2, temperature point 14 of 16, temperature not given): 432064 and 448169 and 475813
- Produrg CETSA screening, raw signal ([3]; n=2, temperature point 15 of 16, temperature not given): 397604 and 474479 and 457905
- Produrg CETSA screening, raw signal ([3]; n=2, temperature point 16 of 16, temperature not given): 400496 and 479946 and 527841
- Produrg CETSA screening, raw signal ([3]; n=3, Temp, 0C 54.1): 44604
- Produrg CETSA screening, raw signal ([3]; n=3, Temp, 0C 55): 39796 and 47150 and 51627
- Produrg CETSA screening, raw signal ([3]; n=3, Temp, 0C 56): 45790 and 51042 and 62078
- Produrg CETSA screening, raw signal ([3]; n=3, Temp, 0C 57.1): 31202 and 38155 and 39301
- Produrg CETSA screening, raw signal ([3]; n=3, Temp, 0C 59.2): 28243 and 27436 and 39233
- Produrg CETSA screening, raw signal ([3]; n=3, Temp, 0C 62.3): 17330 and 19655 and 29378
- Produrg CETSA screening, raw signal ([3]; n=3, Temp, 0C 66.1): 14860 and 24999 and 29256
- Produrg CETSA screening, raw signal ([3]; n=3, Temp, 0C 71.1): 14600 and 19386 and 22788
- ΔT ([3]; Prodrug screen CETSA, live HeLa cells, 50 μM, 20 h, Mean n = 3): 2.28 oC
- ΔT, individual replicates n1-n3 ([3]; Prodrug screen CETSA, single replicates): 0.90 oC and 3.19 oC and 2.74 oC
